In general, EC50 refers to the concentration that produces a half-maximal response.

Here are results for four compounds from patent US20170128448A1, “COMBINATION THERAPY FOR CANCER” (Celgene Corporation, priority 2014, published 2017).

For series [1], the system named is DLBCL cell lines. Particulars: lenalidomide with ibrutinib (Yang, 2012); cited from earlier work.
The conditions of series [2]: cited from earlier work.
Series [3] deals with follicular lymphoma cell lines (RL and DoHH2). The experiment in a line: 8-day cytotoxicity assay (cell titer glo), follicular lymphoma lines. The format is cell-based. The following applies: Compound A 200 nM for 8 days + obinutuzumab (GA101) 0 to 10,000 ng/mL last 24 hours; FL lines. The method, then: (§1) In vitro combination efficacy studies were performed with Compound A and obinutuzumab (GA101). Two follicular (RL and DoHH2) and two diffuse large B cell lymphoma (DLBCL) (Oci-Ly10, WSU-DLCL2) cell lines were treated with either single agent Compound A (200 nM), single agent obinutuzumab (0 to 10,000 ng/mL) or in combination in 8-day cytotoxicity assays (cell titer glo). In both the single agent and combination studies, the cells were treated with Compound A for 8 days and with obinutuzumab treatment on the last 24 hours in the combination studies.
(In general: In ATP-based viability assays light output follows the ATP content of the culture.)

Series [4] has as its system DLBCL cell lines (Oci-Ly10, WSU-DLCL2). The experiment in a line: 8-day cytotoxicity assay (cell titer glo), DLBCL lines. The format is cell-based. The following applies: Compound A 200 nM for 8 days + obinutuzumab (GA101) 0 to 10,000 ng/mL last 24 hours. The method, then:
as §1

Series [5] has as its system human NK cell. The experiment in a line: NK cell IFN-γ production in response to immobilized Ig-G and IL-2 stimulation. The format is cell-based. The following applies: read-out: EC50, enhancement of NK cell IFN-γ production. An excerpt:
Without being bound by a particular theory, Compound A is believed to enhance the human NK cell killing function, antibody-dependent cellular cytotoxicity (ADCC), in rituximab coated lymphoma cell lines.

The subject of series [6] is DoHH2 lymphoma xenograft. The experiment in a line: DoHH2 lymphoma xenograft model. The format is in vivo. The procedure: (§2) In combination with rituximab, Compound A at 3 and 30 mg/kg induced complete regressions in 60% and 90% of animals, respectively.
Series [7] relates to WSU-DLCL2 lymphoma xenograft. The experiment in a line: WSU-DLCL2 lymphoma xenograft model. It is filed as in vivo. The following applies: for complete regressions, % of animals: WSU-DLCL2. The method, then:
as §2

Series [8] can be described thus: First-in-human study of Compound A, Part A dose escalation. It is filed as in vivo. Particulars: for dose limiting toxicities (DLT) observed: in vivo. The method, then:
(§3) The first-in-human study of Compound A is being conducted in a broad tumor population including diverse solid tumors, lymphoma and MM. Part A of the study used a Compound A starting dose of 0.5 mg QD on a continuous dosing schedule. Using allometric scaling, this dose represented a dose ˜20-fold below the highest non-severely toxic dose (HNSTD) in primates based on preclinical toxicology studies. Part A dose escalation proceeded in 0.5 mg increments (0.5, 1.0, 1.5, 2.0, 2.5, 3.0, 3.5 mg) and established the nontolerated dose (NTD) at 3.5 mg QD and the MTD at 3.0 mg QD. […] In Part B, parallel expansion cohorts (14 to 20 subjects each) in 4 tumor indications (MM, NHL, HCC and gliomas) were subsequently enrolled at a dose of 3.0 mg QD. Given that subjects with CLL may be more sensitive to the side effects of immunomodulatory agents (IMiDs®) and other cereblon-binding agents, and the clinical safety, PK and pharmacodynamics data observed with Compound A to date, a lower Compound A starting dose of 0.25 mg QD was used in a CLL population.

For series [9] the following is noted: in vivo. The method, then:
as §3

Series [10] has as its system panel of lymphoma and MM cell lines. The experiment in a line: Immunomodulatory and anti-proliferative activity against a panel of cell lines. It is filed as cell-based. The procedure: (§4) A second consideration for the starting dose of Compound A is based on the relative in vitro potency between Compound A and lenalidomide and the relative human safety and tolerability of lenalidomide in CLL. […] Clinical exploration of lenalidomide in CLL has established 5 mg to be a tolerable starting dose.

Series [11] has as its system human CLL cells. The experiment in a line: Primary cultures of human CLL cells. It is filed as cell-based. Particulars: in 70% of samples tested. The method, then:
as §4

Series [12] concerns TNF-α. The experiment in a line: Cytokine inhibition in LPS-stimulated hPBMC and human whole blood: TNF-α. The format is cell-based. From the text:
(§5) TNF-α is an inflammatory cytokine produced by macrophages and monocytes during acute inflammation. TNF-α is responsible for a diverse range of signaling events within cells. TNF-α may play a pathological role in cancer. Without being limited by theory, one of the biological effects exerted by Compound A is the reduction of synthesis of TNF-α. Compound A enhances the degradation of TNF-α mRNA.

Series [13] has as its system IL-1β. The experiment in a line: Cytokine inhibition in LPS-stimulated hPBMC and human whole blood: IL-1β. The format is cell-based.
Text: as §5

Series [14] relates to IL-10. The experiment in a line: Cytokine stimulation in LPS-stimulated hPBMC and human whole blood: IL-10. It is filed as cell-based.
Text: as §5

The subject of series [15] is T cells. The experiment in a line: T cell co-stimulation. It is filed as cell-based. The following applies: under appropriate conditions.
The mark [16] stands for this setting: continuous dosing, solid tumors, lymphoma and MM.

On to `C=CC(=O)N1CCC[C@@H](n2nc(-c3ccc(Oc4ccccc4)cc3)c3c(N)ncnc32)C1` [ibrutinib], for which, in series [1], the “combination effect of lenalidomide and ibrutinib on killing of DLBCL cell lines” value is given as “synergistically kill”.
With `Nc1cccc2c1CN(C1CCC(=O)NC1=O)C2=O` (centres unmarked) [lenalidomide], in series [1], the “combination effect of lenalidomide and ibrutinib on killing of DLBCL cell lines” value was “synergistically kill”. The “effect of intermittent dosing schedule in CLL” value in [2] (21 of 28 day cycles, during the 7 day drug holidays (Chen, 2011)) was “rebound lymphocytosis”. The “tolerable starting dose in CLL” value in series [2] (CLL patients) is given as 5 mg.
Regarding “GA101: humanized type II monoclonal antibody that binds to CD20 and triggers destruction of B-cells”, the “combination effect on cytotoxicity” value in series [3] is “synergistic”; in series [4], “additive”.
Take `Cc1nc2cccc(N)c2c(=O)n1C1CCC(=O)NC1=O` (centres unmarked) [Compound A, 3-(5-amino-2-methyl-4-oxo-4H-quinazolin-3-yl)-piperidine-2,6-dione]: in series [5], the half-maximal effective concentration (EC50) is 1.5 nM. In addition, in series [6] (Compound A single agent at 3 and 30 mg/kg), the “tumor growth inhibition, single agent” value is given as “modest dose-dependent tumor growth inhibition”. Also, the “tumor growth delay, combination with rituximab” value in series [6] (in combination with rituximab) was “significantly and dose-dependently delayed tumor growth”. Besides, the “complete regressions, % of animals” value in [7] (Compound A 3 mg/kg in combination with rituximab) is 60%; in [7] (Compound A 30 mg/kg in combination with rituximab) it was 90%. For the same compound, in series [7] (WSU-DLCL2 study, Compound A single agent), the “effect as single agent” value is listed as “minimal effects”. Also, in series [7] (WSU-DLCL2 xenograft, administered with rituximab), the “tumor growth inhibition, administered with rituximab” value was “dose-dependent tumor growth inhibition”. Also, the “combination effect on cytotoxicity” value in series [3] is reported as “synergistic”; in series [4] it was “additive”. For the same compound, the MTD in [8] (setting [16]) turned out to be 3.0 mg QD. The “nontolerated dose (NTD)” value in series [8] (setting [16]) is 3.5 mg QD. Moreover, the “dose limiting toxicities (DLT) observed” value in series [8] (human) is “Grade 3 fever and fatigue and Grade 3 muscle weakness”; in [8], “No DLTs”. Also, the “starting dose relative to highest non-severely toxic dose (HNSTD) in primates, fold below” value in [9] was approximately 20 fold. Besides, in [10], the “potency relative to lenalidomide, immunomodulatory and anti-proliferative activity” value is approximately 10 fold. Besides, in [11], the “potency relative to lenalidomide” value is listed as approximately 5 fold. In addition, the “inhibition of TNF-α” value in series [12] is “markedly inhibits”. In addition, the “inhibition of IL-1β” value in series [13] is listed as “potently inhibits”. In addition, in series [14], the “effect on IL-10” value is given as “stimulates”. The “T cell co-stimulation, cell proliferation” value in [15] was “increased cell proliferation in a dose dependent manner”.
